For orientation: IC50 means the point on the concentration scale where inhibition reaches its midpoint.

Experiment [1] concerns the target T1, K-Ras G12D (Homo sapiens, UniProt P01116, G12D).
T1 construct: made in house; host or cells: E. coli BL21 (DE3)
As to the kind of experiment: HTRF resonance energy transfer assay, K-Ras G12D / SOS1 interaction. The format is biochemical. To be noted: HTRF assay of Example 5; read-out: IC50 against K-Ras G12D. A digest of the protocol:
(§1)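 Read-out: HTRF 665/620 nm ratio (excitation 337 nm) after roughly 10 min or longer incubation, used to derive IC50. Donor anti-GST-Eu on GST-K-Ras; acceptor anti-6His-XL665 on His-hSOS1. Duplicate dose series from 10 μM down to 0.01 μM.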
For orientation: TR-FRET usually uses a lanthanide donor and a delayed reading to cut background.

For experiment [2], the target named is T2, K-Ras G12V (Homo sapiens, UniProt P01116, G12V).
T2 construct: made in house; host or cells: E. coli BL21 (DE3)
Put plainly: HTRF resonance energy transfer assay, K-Ras G12V / SOS1 interaction. As to conditions: HTRF assay of Example 5; read-out: IC50 against K-Ras G12V. It is filed as biochemical. A digest of the protocol: as §1

In experiment [3] the target is T3, K-Ras WT (Homo sapiens, UniProt P01116).
T3 construct: made in house; host or cells: E. coli BL21 (DE3)
As to the kind of experiment: HTRF resonance energy transfer assay, K-Ras WT / SOS1 interaction. The format is biochemical. As to conditions: HTRF assay of Example 5; read-out: IC50 against K-Ras WT. A digest of the protocol:
as §1

Experiment [4] relates to SW620 cells. Put plainly: Ras cellular assay, growth of cells with K-Ras G12V mutation (CellTiter-Glo). The format is cell-based. As to conditions: Homo sapiens, SW-620; cell growth, Example 9, G12V mutation; read-out: IC50 against SW620 cells. The procedure:
For example, this assay can be also used to assess a selective growth inhibition of a mutant Ras protein relative to a wildtype, or relative to a different mutant Ras protein.
SW620 (ATCC CCL-227) and Capan-1 (ATCC HTB-79) cell lines comprise a G12V mutation and can be used to assess Ras cellular signaling in vitro, e.g., in response to the compounds herein. SW620 culture medium is prepared with RPMI-1640 and 10% heat-inactivated FBS. Capan-1 culture medium is prepared with RPMI-1640 and 10% heat-inactivated FBS. A CellTiter-Glo (CTG) luminescent based assay (Promega) is used to assess growth of the cells, as a measurement of the ability of the compounds herein to inhibit Ras signaling in the cells. The cells (e.g., 800 per well) are seeded in their respective culture medium in standard tissue culture-treated 384-well format plates (Falcon #08-772-116) or ultra-low attachment surface 384-well format plates (S-Bio #MS-9384WZ). The day after plating, cells are treated with a dilution series (e.g., a 10 point 3-fold dilution series) of the compounds herein (e.g., approximately 40 μL final volume per well). Cell viability can be monitored (e.g., approximately 6 days later) according to the manufacturer's recommended instructions, where the CellTiter-Glo reagent is added (e.g., approximately 10 μL), vigorously mixed, covered, and placed on a plate shaker (e.g., approximately for 20 min) to ensure sufficient cell lysis prior to assessment of luminescent signal. The IC50 values are determined using the four parameter fit. The resulting IC50 value is a measurement of the ability of the compounds herein to reduce cell growth of Ras-driven cells (e.g., tumor cell lines) in vitro and/or in vivo.
(ATP-based viability assays read luminescence as a measure of living cells.)

In experiment [5] the target is T4, K-Ras G12S (Homo sapiens, UniProt P01116, G12S).
T4 construct: made in house; host or cells: E. coli BL21 (DE3)
Put plainly: HTRF resonance energy transfer assay, K-Ras G12S / SOS1 interaction. It is filed as biochemical. As to conditions: HTRF assay of Example 5; read-out: IC50 against K-Ras G12S. An outline of the steps: as §1

A value given as a limit tells only on which side of the number the result lay.

T1 sequence (P01116 1-188 isoform P01116-2 G12D): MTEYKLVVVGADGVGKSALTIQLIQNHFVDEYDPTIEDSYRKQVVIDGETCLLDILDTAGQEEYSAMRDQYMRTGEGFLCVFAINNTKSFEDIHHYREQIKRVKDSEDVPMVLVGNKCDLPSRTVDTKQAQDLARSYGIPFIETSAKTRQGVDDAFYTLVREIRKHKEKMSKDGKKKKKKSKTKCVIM
T4 sequence (P01116 1-188 isoform P01116-2 G12S): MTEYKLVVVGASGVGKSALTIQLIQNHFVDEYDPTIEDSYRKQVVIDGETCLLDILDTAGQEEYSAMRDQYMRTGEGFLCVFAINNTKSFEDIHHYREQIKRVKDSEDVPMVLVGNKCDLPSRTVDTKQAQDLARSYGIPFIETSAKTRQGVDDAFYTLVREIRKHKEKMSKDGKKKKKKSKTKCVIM
T3 sequence (P01116 1-188 isoform P01116-2): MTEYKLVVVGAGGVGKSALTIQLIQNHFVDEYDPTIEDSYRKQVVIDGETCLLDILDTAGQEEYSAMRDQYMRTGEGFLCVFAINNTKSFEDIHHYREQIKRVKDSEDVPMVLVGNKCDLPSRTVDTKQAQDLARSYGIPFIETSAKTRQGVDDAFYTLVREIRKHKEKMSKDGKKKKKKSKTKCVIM
T2 sequence (P01116 1-188 isoform P01116-2 G12V): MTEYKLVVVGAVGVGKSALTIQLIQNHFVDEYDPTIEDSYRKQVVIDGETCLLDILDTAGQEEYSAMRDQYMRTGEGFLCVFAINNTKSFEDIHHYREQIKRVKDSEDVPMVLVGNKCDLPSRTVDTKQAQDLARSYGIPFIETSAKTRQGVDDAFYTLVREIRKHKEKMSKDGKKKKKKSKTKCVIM

Take `N#Cc1c(N)sc2c(F)ccc(-c3c(Cl)c4c5c(nc(OC[C@@]67CCCN6C[C@H](F)C7)nc5c3F)N(CC(F)F)C(CC3CC3C#N)CO4)c12` (single isomer, unassigned) [Compound 674]: the half-inhibitory concentration (IC50) in experiment [1] is less than 100 nM; in experiment [2], less than 100 nM; in experiment [3] it was less than 100 nM; in experiment [4], less than 5000 nM.

Regarding `N#Cc1c(N)sc2c(F)ccc(-c3c(Cl)c4c5c(nc(OC[C@@]67CCCN6C[C@H](F)C7)nc5c3F)N(C3CCOC3)[C@@H](C(F)F)CO4)c12` (stereo partly drawn) [Compound 747, 2-amino-4-((5R)-8-chloro-5-(difluoromethyl)-10-fluoro-2-(((2R,7aS)-2-fluorotetrahydro-1H-pyrrolizin-7a(5H)-yl)methoxy)-4-(tetrahydrofuran-3-yl)-5,6-dihydro-4H-[1,4]oxazepino[5,6,7-de]quinazolin-9-yl)-7-fluorobenzo[b]thiophene-3-carbonitrile], in experiment [4], the 50% inhibitory concentration (IC50) is less than 5000 nM.

As to `N#Cc1c(N)sc2c(F)ccc(-c3c(Cl)c4c5c(nc(OC[C@@]67CCCN6C[C@H](F)C7)nc5c3F)N(CC(F)F)C(C3CCCN3)CO4)c12` (stereo partly drawn) [Compound 784, 2-amino-4-(8-chloro-4-(2,2-difluoroethyl)-10-fluoro-2-(((2R,7aS)-2-fluorotetrahydro-1H-pyrrolizin-7a(5H)-yl)methoxy)-5-(pyrrolidin-2-yl)-5,6-dihydro-4H-[1,4]oxazepino[5,6,7-de]quinazolin-9-yl)-7-fluorobenzo[b]thiophene-3-carbonitrile], the IC50 in experiment [1] was less than 100 nM; in experiment [2], less than 100 nM; in experiment [4], less than 5000 nM.

On to `CS(=O)(=O)NCC1COc2c(Cl)c(-c3ccc(F)c4sc(N)c(C#N)c34)c(F)c3nc(OC[C@@]45CCCN4C[C@H](F)C5)nc(c23)N1CC(F)F` (stereo partly drawn) [Compound 847, N-((9-(2-amino-3-cyano-7-fluorobenzo[b]thiophen-4-yl)-8-chloro-4-(2,2-difluoroethyl)-10-fluoro-2-(((2R,7aS)-2-fluorotetrahydro-1H-pyrrolizin-7a(5H)-yl)methoxy)-5,6-dihydro-4H-[1,4]oxazepino[5,6,7-de]quinazolin-5-yl)methyl)methanesulfonamide], for which the values for the concentration for half-maximal inhibition (IC50) in experiment [2] and in experiment [4] were less than 100 nM and less than 5000 nM, respectively.

As for `C[C@H]1CN(CC2(N(C)C)CCC2)c2nc(OC[C@@]34CCCN3C[C@H](F)C4)nc3c(F)c(-c4ccc(F)c5sc(N)c(C#N)c45)c(Cl)c(c23)O1` [Compound 978, 2-amino-4-((6S)-8-chloro-4-((1-(dimethylamino)cyclobutyl)methyl)-10-fluoro-2-(((2R,7aS)-2-fluorotetrahydro-1H-pyrrolizin-7a(5H)-yl)methoxy)-6-methyl-5,6-dihydro-4H-[1,4]oxazepino[5,6,7-de]quinazolin-9-yl)-7-fluorobenzo[b]thiophene-3-carbonitrile], the IC50 in experiment [5] is less than 100 nM; in experiment [2], less than 100 nM; in experiment [4], less than 5000 nM.

As for `N#Cc1c(N)sc2c(F)ccc(-c3c(Cl)c4c5c(nc(OC[C@@]67CCCN6C[C@H](F)C7)nc5c3F)N(C3CCCCN(C(=O)C5CN5)C3)CCO4)c12` (stereo partly drawn) [Compound 992, 2-amino-4-(4-(1-(aziridine-2-carbonyl)azepan-3-yl)-8-chloro-10-fluoro-2-(((2R,7aS)-2-fluorotetrahydro-1H-pyrrolizin-7a(5H)-yl)methoxy)-5,6-dihydro-4H-[1,4]oxazepino[5,6,7-de]quinazolin-9-yl)-7-fluorobenzo[b]thiophene-3-carbonitrile], in experiment [4], the half-inhibitory concentration (IC50) is less than 5000 nM.

Take `N#Cc1c(N)sc2c(F)ccc(-c3c(Cl)c4c5c(nc(OC[C@@]67CCCN6C[C@H](F)C7)nc5c3F)N(CC(F)F)[C@@H](C3(O)CC3)CO4)c12` [Compound 1001, 2-amino-4-((R)-8-chloro-4-(2,2-difluoroethyl)-10-fluoro-2-(((2R,7aS)-2-fluorotetrahydro-1H-pyrrolizin-7a(5H)-yl)methoxy)-5-(1-hydroxycyclopropyl)-5,6-dihydro-4H-[1,4]oxazepino[5,6,7-de]quinazolin-9-yl)-7-fluorobenzo[b]thiophene-3-carbonitrile]: the IC50 in experiment [4] was less than 5000 nM.

Consider `C#C[C@H]1COc2c(Cl)c(-c3ccc(F)c4sc(N)c(C#N)c34)c(F)c3nc(OC[C@@]45CCCN4C[C@H](F)C5)nc(c23)N1CC(F)F` [Compound 1075, 2-amino-4-((5S)-8-chloro-4-(2,2-difluoroethyl)-5-ethynyl-10-fluoro-2-(((2R,7aS)-2-fluorotetrahydro-1H-pyrrolizin-7a(5H)-yl)methoxy)-5,6-dihydro-4H-[1,4]oxazepino[5,6,7-de]quinazolin-9-yl)-7-fluorobenzo[b]thiophene-3-carbonitrile], for which the IC50 in experiment [1], in experiment [5], in experiment [2] and in experiment [3] was less than 100 nM throughout.

With `CS(=O)(=O)N1CC1C(=O)NCCN1CCOc2c(Cl)c(-c3ccc(F)c4sc(N)c(C#N)c34)c(F)c3nc(OC[C@@]45CCCN4C[C@H](F)C5)nc1c23` (stereo partly drawn) [Compound 1077, N-(2-(9-(2-amino-3-cyano-7-fluorobenzo[b]thiophen-4-yl)-8-chloro-10-fluoro-2-(((2R,7aS)-2-fluorotetrahydro-1H-pyrrolizin-7a(5H)-yl)methoxy)-5,6-dihydro-4H-[1,4]oxazepino[5,6,7-de]quinazolin-4-yl)ethyl)-1-(methylsulfonyl)aziridine-2-carboxamide], the half-inhibitory concentration (IC50) in experiment [1], in experiment [5], in experiment [2] and in experiment [3] was less than 100 nM each time.

On to `N#Cc1c(N)sc2c(F)ccc(-c3c(Cl)c4c5c(nc(OC[C@@]67CCCN6C[C@H](F)C7)nc5c3F)N(CC(F)F)[C@@H](C3CC3C#N)CO4)c12` (stereo partly drawn) [Compound 1078, 2-amino-4-((5S)-8-chloro-5-(2-cyanocyclopropyl)-4-(2,2-difluoroethyl)-10-fluoro-2-(((2R,7aS)-2-fluorotetrahydro-1H-pyrrolizin-7a(5H)-yl)methoxy)-5,6-dihydro-4H-[1,4]oxazepino[5,6,7-de]quinazolin-9-yl)-7-fluorobenzo[b]thiophene-3-carbonitrile], for which the IC50 in experiment [1], in experiment [5], in experiment [2] and in experiment [3] was less than 100 nM each time.

In the case of `N#Cc1c(N)sc2c(F)ccc(-c3c(Cl)c4c5c(nc(OC[C@@]67CCCN6C[C@H](F)C7)nc5c3F)N(CC(F)F)C(C3CNC3)CO4)c12` (stereo partly drawn) [Compound 1131, 2-amino-4-(5-(azetidin-3-yl)-8-chloro-4-(2,2-difluoroethyl)-10-fluoro-2-(((2R,7aS)-2-fluorotetrahydro-1H-pyrrolizin-7a(5H)-yl)methoxy)-5,6-dihydro-4H-[1,4]oxazepino[5,6,7-de]quinazolin-9-yl)-7-fluorobenzo[b]thiophene-3-carbonitrile], the concentration for half-maximal inhibition (IC50) in experiment [1], in experiment [5], in experiment [2] and in experiment [3] was less than 100 nM throughout.

For `N#Cc1c(N)sc2c(F)ccc(-c3c(Cl)c4c5c(nc(OC[C@@]67CCCN6C[C@H](F)C7)nc5c3F)N(CC3(N)CCC3)CCCO4)c12` [Compound 1213, 2-amino-4-(4-((1-aminocyclobutyl)methyl)-9-chloro-11-fluoro-2-(((2R,7aS)-2-fluorotetrahydro-1H-pyrrolizin-7a(5H)-yl)methoxy)-4,5,6,7-tetrahydro-[1,5]oxazocino [4,3,2-de]quinazolin-10-yl)-7-fluorobenzo[b]thiophene-3-carbonitrile], the half-inhibitory concentration (IC50) in experiment [1], in experiment [5], in experiment [2] and in experiment [3] was less than 100 nM each time.

In the case of `N#Cc1c(N)sc2c(F)ccc(-c3c(Cl)c4c5c(nc(OC[C@@]67CCCN6C[C@H](F)C7)nc5c3F)NCCC(CO)O4)c12` (stereo partly drawn) [Compound 1214, 2-amino-4-(9-chloro-11-fluoro-2-(((2R,7aS)-2-fluorotetrahydro-1H-pyrrolizin-7a(5H)-yl)methoxy)-7-(hydroxymethyl)-4,5,6,7-tetrahydro-[1,5]oxazocino[4,3,2-de]quinazolin-10-yl)-7-fluorobenzo[b]thiophene-3-carbonitrile], the IC50 in experiment [1], in experiment [5], in experiment [2] and in experiment [3] was less than 100 nM each time.
